Test results published in US6936270B2, “Device and method for treating conditions of a joint” (Control Delivery Systems, Inc., priority 2000, dated 2005).
Like-named read-outs stand apart in the source and are kept apart here.

Assays:
[1] = Synovial fluid concentration of fluocinolone acetonide after FA screw implant in the stifle joint of sheep; format: in vivo, Ovis aries (Sheep); conditions: at three and eight weeks, FIG. 1
Text: (§1) The objective of this study was to determine both the local and systemic pharmacokinetic profile of an intra-articular fluocinolone acetonide (FA screw) implant in the stifle joint of sheep. The animals underwent surgical implantation of the FA Screw test device in the stifle joint on Day 1. Following a recovery period, blood and synovial fluid were collected periodically for pharmacokinetic determination. Following completion of a 24 month observation period, the animals were euthanized and subjected to necropsy.
(§2) Devices were administered once via surgical implantation on Day 1.
(§3) The implant was a polymer-coated, sustained-release delivery system for Fluocinolone Acetonide (FA). The implant contained 55 mg of FA and was designed to deliver the drug for approximately 3 years. The tablet core contained approximately 55 mg of FA granulated with 10% PVA. The tablet core was positioned and adhered via an adhesive, such as a silicone adhesive, in the interchangeable head of the bone screw. The overall device geometry was that of a cancellous bone screw (i.e. the base) in which the head of the screw has been hollowed out to accept a removable cup (i.e. the payload) containing the drug tablet. In this embodiment, the screw was approximately 11/16″ in length and is no more than ¼″ at its widest point (i.e. the screw head), The payload was sized to fit into the screw and to accommodate the tablet. […]

[2] = Plasma concentration of fluocinolone acetonide after FA screw implant in the stifle joint of sheep; format: in vivo, Ovis aries (Sheep); conditions: intra-articular FA screw implants in the stifle joint, FIG. 1
Text: as §1, §2, §3

[3] = Fluocinolone acetonide concentration in dog synovial fluid after intraarticular implants in knee joints; format: in vivo, Canis familiaris; conditions: for concentration at 3 day / concentration at 7 day / concentration at 21 day / concentration at 29 day / concentration at 56 day: dog, other: bilateral intraarticular implants (knee joints)
Description: Devices were administered once via bilateral intraarticular implants. The day of surgical implantation was Day 1. The devices were made as follows. Fluocinolone acetonide, USP, was compressed into 1.5 mm diameter tablets using standard pharmaceutical methods. The tablets were placed into preformed cups made from silicone elastomer. Cup size was dependent on dosage form. These cups were attached to […] (PVA) suture tabs. For the 2 mg implants, the surface of the tablet not coated with silicone was attached to a suture tab with PVA solution. For the […] implant, a side of the silicone cup was attached perpendicular to the suture tab. Finally, the assemblies were dip coated with PVA. The implants were then cured at 135° C. for 5 hours and placed within the primary package. The product in the primary package was placed in a self-adhesive pouch and sterilized using gamma irradiation. Surgery was performed on both knee joints of all animals. A lateral skin incision was made to expose the fascia lata overlying the vastus lateralis cranially and the biceps fernoris caudally. The joint was exposed through an incision in the lateral intermuscular septum to expose the femur by anterior retraction of the vastus lateralis and posterior retraction of the biceps femoris. Care was taken not to disrupt the tendon of origin of the long digital extensor as it originates from the lateral femoral condyle. The joint capsule was opened, the patella luxated medially, and the joint was held in full flexion. 2 mg devices were placed in the right leg and 18 mg implants were placed in the left leg. The implants were placed within the anterior intercondyloid fossa, immediately lateral to the origin of the posterior cruciate ligament. The bone may be slightly deepened at this location with a curette to accept the implant. The implant was sutured in place to the posterior cruciate ligament. The joint capsule was closed with 3/0 PDS in a simple interrupted fashion. The retinaculum and intermuscular septum were closed with 2/0 Vicryl in a continuous pattern. The fascia lata were closed with 2/0 PDS, and the subcutaneous tissues with 3/0 PDS, both in a simple continuous pattern. The skin was closed with 3/0 Vicryl in a subcuticular pattern. After anesthesia (acepromazine, 0.2 mg/kg. IM followed by sodium pentobarbital, 22 mg/kg, IV, to effect), an attempt was made to obtain synovial fluid. Syriovial fluid samples were immediately stored at ≦−70° C. in polypropylene tubes until transferred.

Compound: CC1(C)O[C@@H]2C[C@H]3[C@@H]4C[C@H](F)C5=CC(=O)C=C[C@]5(C)[C@@]4(F)[C@@H](O)C[C@]3(C)[C@]2(C(=O)CO)O1 [Fluocinolone Acetonide]
- increase in FA concentrations in the synovial fluid [1]: three-fold increase
- Plasma levels [2]: 0 to 0.35 ng/mL
- Assayed Concentrations of Fluocinolone Acetonide in Dog Synovial Fluid Samples (Right Leg) ([3]; Right leg (2 mg devices), Dog 1001, Day 21): 7.27 ng/mL
- Assayed Concentrations of Fluocinolone Acetonide in Dog Synovial Fluid Samples (Right Leg) ([3]; Right leg (2 mg devices), Dog 2001, Day 7): 98.4 ng/mL
- Assayed Concentrations of Fluocinolone Acetonide in Dog Synovial Fluid Samples (Right Leg) ([3]; Right leg (2 mg devices), Dog 2002, Day 7): 47.7 ng/mL
- Assayed Concentrations of Fluocinolone Acetonide in Dog Synovial Fluid Samples (Right Leg) ([3]; Right leg (2 mg devices), Dog 2002, Day 21): 144 ng/mL
- Assayed Concentrations of Fluocinolone Acetonide in Dog Synovial Fluid Samples (Right Leg) ([3]; Right leg (2 mg devices), Dog 3001, Day 7): 171 ng/mL
- Assayed Concentrations of Fluocinolone Acetonide in Dog Synovial Fluid Samples (Right Leg) ([3]; Right leg (2 mg devices), Dog 3001, Day 21): 51.5 ng/mL
- Assayed Concentrations of Fluocinolone Acetonide in Dog Synovial Fluid Samples (Right Leg) ([3]; Right leg (2 mg devices), Dog 3002, Day 7): 8.30 ng/mL
- concentration at 3 day ([3]; synovial fluid (left knee joint), 18 mg, Left leg (18 mg implants), Dog 1001, Day 3, read-out: Assayed Concentrations of Fluocinolone Acetonide in Dog Synovial Fluid Samples (Left Leg)): 656 ng/mL
- concentration at 7 day ([3]; synovial fluid (left knee joint), 18 mg, Left leg (18 mg implants), Dog 1001, Day 7, read-out: Assayed Concentrations of Fluocinolone Acetonide in Dog Synovial Fluid Samples (Left Leg)): 290 ng/mL
- concentration at 21 day ([3]; synovial fluid (left knee joint), 18 mg, Left leg (18 mg implants), Dog 1001, Day 21, read-out: Assayed Concentrations of Fluocinolone Acetonide in Dog Synovial Fluid Samples (Left Leg)): 1070 ng/mL
- concentration at 29 day ([3]; synovial fluid (left knee joint), 18 mg, Left leg (18 mg implants), Dog 1001, Day 29, read-out: Assayed Concentrations of Fluocinolone Acetonide in Dog Synovial Fluid Samples (Left Leg)): 457 ng/mL
- concentration at 56 day ([3]; synovial fluid (left knee joint), 18 mg, Left leg (18 mg implants), Dog 1001, Day 56, read-out: Assayed Concentrations of Fluocinolone Acetonide in Dog Synovial Fluid Samples (Left Leg)): 202000 ng/mL
- concentration at 3 day ([3]; synovial fluid (left knee joint), 18 mg, Left leg (18 mg implants), Dog 1002, Day 3, read-out: Assayed Concentrations of Fluocinolone Acetonide in Dog Synovial Fluid Samples (Left Leg)): 357 ng/mL
- concentration at 7 day ([3]; synovial fluid (left knee joint), 18 mg, Left leg (18 mg implants), Dog 1002, Day 7, read-out: Assayed Concentrations of Fluocinolone Acetonide in Dog Synovial Fluid Samples (Left Leg)): 405 ng/mL
- concentration at 21 day ([3]; synovial fluid (left knee joint), 18 mg, Left leg (18 mg implants), Dog 1002, Day 21, read-out: Assayed Concentrations of Fluocinolone Acetonide in Dog Synovial Fluid Samples (Left Leg)): 373 ng/mL
- concentration at 29 day ([3]; synovial fluid (left knee joint), 18 mg, Left leg (18 mg implants), Dog 1002, Day 29, read-out: Assayed Concentrations of Fluocinolone Acetonide in Dog Synovial Fluid Samples (Left Leg)): 379 ng/mL
- concentration at 56 day ([3]; synovial fluid (left knee joint), 18 mg, Left leg (18 mg implants), Dog 1002, Day 56, read-out: Assayed Concentrations of Fluocinolone Acetonide in Dog Synovial Fluid Samples (Left Leg)): 541 ng/mL
- concentration at 3 day ([3]; synovial fluid (left knee joint), 18 mg, Left leg (18 mg implants), Dog 2001, Day 3, read-out: Assayed Concentrations of Fluocinolone Acetonide in Dog Synovial Fluid Samples (Left Leg)): 89 ng/mL
- concentration at 7 day ([3]; synovial fluid (left knee joint), 18 mg, Left leg (18 mg implants), Dog 2001, Day 7, read-out: Assayed Concentrations of Fluocinolone Acetonide in Dog Synovial Fluid Samples (Left Leg)): 194 ng/mL
- concentration at 29 day ([3]; synovial fluid (left knee joint), 18 mg, Left leg (18 mg implants), Dog 2001, Day 29, read-out: Assayed Concentrations of Fluocinolone Acetonide in Dog Synovial Fluid Samples (Left Leg)): 57.8 ng/mL
- concentration at 3 day ([3]; synovial fluid (left knee joint), 18 mg, Left leg (18 mg implants), Dog 2002, Day 3, read-out: Assayed Concentrations of Fluocinolone Acetonide in Dog Synovial Fluid Samples (Left Leg)): 193 ng/mL
- concentration at 7 day ([3]; synovial fluid (left knee joint), 18 mg, Left leg (18 mg implants), Dog 2002, Day 7, read-out: Assayed Concentrations of Fluocinolone Acetonide in Dog Synovial Fluid Samples (Left Leg)): 279 ng/mL
- concentration at 21 day ([3]; synovial fluid (left knee joint), 18 mg, Left leg (18 mg implants), Dog 2002, Day 21, read-out: Assayed Concentrations of Fluocinolone Acetonide in Dog Synovial Fluid Samples (Left Leg)): 393 ng/mL
- concentration at 29 day ([3]; synovial fluid (left knee joint), 18 mg, Left leg (18 mg implants), Dog 2002, Day 29, read-out: Assayed Concentrations of Fluocinolone Acetonide in Dog Synovial Fluid Samples (Left Leg)): 956 ng/mL
- concentration at 3 day ([3]; synovial fluid (left knee joint), 18 mg, Left leg (18 mg implants), Dog 3001, Day 3, read-out: Assayed Concentrations of Fluocinolone Acetonide in Dog Synovial Fluid Samples (Left Leg)): 788 ng/mL
- concentration at 7 day ([3]; synovial fluid (left knee joint), 18 mg, Left leg (18 mg implants), Dog 3001, Day 7, read-out: Assayed Concentrations of Fluocinolone Acetonide in Dog Synovial Fluid Samples (Left Leg)): 35300 ng/mL
- concentration at 21 day ([3]; synovial fluid (left knee joint), 18 mg, Left leg (18 mg implants), Dog 3001, Day 21, read-out: Assayed Concentrations of Fluocinolone Acetonide in Dog Synovial Fluid Samples (Left Leg)): 5180 ng/mL
- concentration at 56 day ([3]; synovial fluid (left knee joint), 18 mg, Left leg (18 mg implants), Dog 3001, Day 56, read-out: Assayed Concentrations of Fluocinolone Acetonide in Dog Synovial Fluid Samples (Left Leg)): 36.9 ng/mL
- concentration at 3 day ([3]; synovial fluid (left knee joint), 18 mg, Left leg (18 mg implants), Dog 3002, Day 3, read-out: Assayed Concentrations of Fluocinolone Acetonide in Dog Synovial Fluid Samples (Left Leg)): 207 ng/mL
- concentration at 7 day ([3]; synovial fluid (left knee joint), 18 mg, Left leg (18 mg implants), Dog 3002, Day 7, read-out: Assayed Concentrations of Fluocinolone Acetonide in Dog Synovial Fluid Samples (Left Leg)): 251 ng/mL
- concentration at 21 day ([3]; synovial fluid (left knee joint), 18 mg, Left leg (18 mg implants), Dog 3002, Day 21, read-out: Assayed Concentrations of Fluocinolone Acetonide in Dog Synovial Fluid Samples (Left Leg)): 276 ng/mL
- concentration at 29 day ([3]; synovial fluid (left knee joint), 18 mg, Left leg (18 mg implants), Dog 3002, Day 29, read-out: Assayed Concentrations of Fluocinolone Acetonide in Dog Synovial Fluid Samples (Left Leg)): 210 ng/mL
- concentration at 3 day ([3]; synovial fluid (right knee joint), 2 mg, Right leg (2 mg devices), Dog 1001, Day 3, read-out: Assayed Concentrations of Fluocinolone Acetonide in Dog Synovial Fluid Samples (Right Leg)): 52 ng/mL
- concentration at 7 day ([3]; synovial fluid (right knee joint), 2 mg, Right leg (2 mg devices), Dog 1001, Day 7, read-out: Assayed Concentrations of Fluocinolone Acetonide in Dog Synovial Fluid Samples (Right Leg)): 62.4 ng/mL
- concentration at 56 day ([3]; synovial fluid (right knee joint), 2 mg, Right leg (2 mg devices), Dog 1001, Day 56, read-out: Assayed Concentrations of Fluocinolone Acetonide in Dog Synovial Fluid Samples (Right Leg)): 19.3 ng/mL
- concentration at 3 day ([3]; synovial fluid (right knee joint), 2 mg, Right leg (2 mg devices), Dog 1002, Day 3, read-out: Assayed Concentrations of Fluocinolone Acetonide in Dog Synovial Fluid Samples (Right Leg)): 36.6 ng/mL
- concentration at 3 day ([3]; synovial fluid (right knee joint), 2 mg, Right leg (2 mg devices), Dog 2001, Day 3, read-out: Assayed Concentrations of Fluocinolone Acetonide in Dog Synovial Fluid Samples (Right Leg)): 600 ng/mL
- concentration at 3 day ([3]; synovial fluid (right knee joint), 2 mg, Right leg (2 mg devices), Dog 2002, Day 3, read-out: Assayed Concentrations of Fluocinolone Acetonide in Dog Synovial Fluid Samples (Right Leg)): 24.4 ng/mL
- concentration at 3 day ([3]; synovial fluid (right knee joint), 2 mg, Right leg (2 mg devices), Dog 3001, Day 3, read-out: Assayed Concentrations of Fluocinolone Acetonide in Dog Synovial Fluid Samples (Right Leg)): 57.9 ng/mL
- concentration at 29 day ([3]; synovial fluid (right knee joint), 2 mg, Right leg (2 mg devices), Dog 3001, Day 29, read-out: Assayed Concentrations of Fluocinolone Acetonide in Dog Synovial Fluid Samples (Right Leg)): 16.4 ng/mL
- concentration at 3 day ([3]; synovial fluid (right knee joint), 2 mg, Right leg (2 mg devices), Dog 3002, Day 3, read-out: Assayed Concentrations of Fluocinolone Acetonide in Dog Synovial Fluid Samples (Right Leg)): 40.7 ng/mL
- concentration at 29 day ([3]; synovial fluid (right knee joint), 2 mg, Right leg (2 mg devices), Dog 3002, Day 29, read-out: Assayed Concentrations of Fluocinolone Acetonide in Dog Synovial Fluid Samples (Right Leg)): 7.86 ng/mL
